# Patent publication US8765946B2, “Methods of preparing and using quinazoline and quinoline derivatives” (priority 2006, dated 2014)
# Biological target: T1, A431 cells EGFR-TK phosphorylation stimulated by EGF (Homo sapiens, UniProt P00533)
# T1 construct: against A431 cells EGFR-TK; endogenous in cells; host or cells: A431 cells
# Assay: Inhibition of cellular EGFR-TK phosphorylation stimulated by EGF in A431 cells
# Type: cell-based
# Settings: A431 cells EGFR-TK phosphorylation stimulated by EGF (Table 4)
# Method: Inhibition Experiment of Cellular Epidermal Growth Factor Receptor Tyrosine Kinase
# 1) A431 cells were cultured in a medium which was prepared by adding 10% FCS into another medium comprising 50% DMEM and 50% F12.
# 2) A431 cells grown in six-well plates were cultured in a serum-free medium for 24 hours. During the 24 hour period the medium was replenished once after 12 hours.
# 3) A solution containing a compound to be assessed was added the A431 cells and the cells were cultured for 2 hours, supplemented twice by a medium free of the compound, and then EGF (100 ng/well) was added, and cultured for 5 minutes.
# 4) A431 cell homogenate was prepared by Laemili buffer which comprised 2% sodium dodecyl sulfonate (SDS), 5% 2-mercaptoethanol, 10% glycerol and 5 mM Tris (pH 6.8).
# 5) The A431 cell homogenate was heated for 5 minutes at 100° C.
# 6) Proteins in the A431 cell homogenates were separated by PAGE and transferred onto a nitrocellulose membrane, and an infrared reading was obtained.
# T1 sequence (P00533 25-1210): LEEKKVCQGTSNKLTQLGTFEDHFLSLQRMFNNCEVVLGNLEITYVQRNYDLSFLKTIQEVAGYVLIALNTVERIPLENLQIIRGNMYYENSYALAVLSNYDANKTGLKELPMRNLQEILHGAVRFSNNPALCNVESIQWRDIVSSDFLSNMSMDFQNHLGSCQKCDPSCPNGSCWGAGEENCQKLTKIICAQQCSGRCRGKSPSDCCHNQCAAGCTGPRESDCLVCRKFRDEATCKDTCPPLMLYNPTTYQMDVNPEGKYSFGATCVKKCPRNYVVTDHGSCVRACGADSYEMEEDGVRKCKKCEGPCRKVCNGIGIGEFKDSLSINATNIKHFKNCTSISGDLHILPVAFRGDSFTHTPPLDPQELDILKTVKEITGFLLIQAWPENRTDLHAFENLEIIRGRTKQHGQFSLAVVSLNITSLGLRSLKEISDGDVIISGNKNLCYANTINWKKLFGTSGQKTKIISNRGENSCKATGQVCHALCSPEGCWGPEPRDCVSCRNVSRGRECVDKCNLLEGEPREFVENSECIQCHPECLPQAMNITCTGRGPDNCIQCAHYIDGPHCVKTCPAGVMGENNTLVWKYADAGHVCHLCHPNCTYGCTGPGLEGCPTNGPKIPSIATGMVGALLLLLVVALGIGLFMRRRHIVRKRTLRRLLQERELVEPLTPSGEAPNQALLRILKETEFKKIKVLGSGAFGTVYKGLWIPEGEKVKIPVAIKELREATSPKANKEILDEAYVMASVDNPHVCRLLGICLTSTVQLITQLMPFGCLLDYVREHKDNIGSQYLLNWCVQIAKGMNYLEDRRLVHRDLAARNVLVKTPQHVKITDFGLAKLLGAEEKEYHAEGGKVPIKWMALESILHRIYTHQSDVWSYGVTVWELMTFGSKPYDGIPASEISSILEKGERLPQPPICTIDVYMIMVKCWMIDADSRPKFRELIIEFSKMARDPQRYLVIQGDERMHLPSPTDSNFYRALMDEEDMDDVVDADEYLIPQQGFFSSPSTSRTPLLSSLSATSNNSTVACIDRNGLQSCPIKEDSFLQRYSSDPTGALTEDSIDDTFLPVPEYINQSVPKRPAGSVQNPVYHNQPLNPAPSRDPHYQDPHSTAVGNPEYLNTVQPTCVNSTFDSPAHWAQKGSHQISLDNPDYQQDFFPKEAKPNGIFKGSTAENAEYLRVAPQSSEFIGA
row,SMILES,EC50
1,"COCCOc1cc2ncc(C#N)c(Nc3ccc(OCc4cccc(F)c4)c(Cl)c3)c2cc1N [Example 141, 4-(4-(3-fluorobenzyloxy)-3-chlorophenylamino)-6-amino-7-(2-methoxyethoxy)quinoline-3-carbonitrile]",0.28 µM
2,"COCCOc1cc2ncnc(Nc3cccc(Br)c3)c2cc1NC(=O)C=C1CCN(C)CC1 [Example 65, N-(4-(3-bromophenylamino)-7-(2-methoxyethoxy)quinazolin-6-yl)-2-(1-methylpiperidin-4-ylidene)acetamide]",0.23 µM
3,"COc1cc2ncnc(Nc3ccc(Oc4ccccc4)c(OC)c3)c2cc1NC(=O)C=C1CCNCC1 [Example 110, N-(7-methoxy-4-(3-methoxy-4-phenoxyphenylamino)quinazolin-6-yl)-2-(piperidin-4-ylidene)acetamide]",0.9 µM

# Same assay, conditions: A-431; concentration of 3 μM; A431 cells, EGF stimulated; one-time measurement at a single concentration (preliminary selection); NA = No activity; read-out: Inhibition Percent (%)
row,SMILES,inhibition at 3 µM
1,"COCCOc1cc2ncnc(Nc3cccc(Br)c3)c2cc1NC(=O)C=C1CCNCC1 [Example 40, N-(4-(3-bromophenylamino)-7-(2-methoxyethoxy)quinazolin-6-yl)-2-(piperidin-4-ylidene)acetamide]",89%
2,"O=C(C=C1CCNCC1)Nc1cc2c(Nc3cccc(Br)c3)ncnc2cc1OCCCN1CCOCC1 [Example 37, N-(4-(3-bromophenylamino)-7-(3-morpholinopropoxy)quinazolin-6-yl)-2-(piperidin-4-ylidene)acetamide]",82%
3,"N#Cc1cnc2ccc(N)cc2c1Nc1ccc(F)c(Cl)c1 [Example 132, 6-amino-4-(3-chloro-4-fluorophenylamino)quinoline-3-carbonitrile]",64%
4,"O=C(C=C1CCNCC1)Nc1ccc2ncnc(Nc3ccccc3)c2c1 [Example 31, N-(4-(phenylamino)quinazolin-6-yl)-2-(piperidin-4-ylidene)acetamide]",33%
5,"COCCOc1cc2ncc(C#N)c(Nc3ccc(OCc4cccc(F)c4)c(Cl)c3)c2cc1N [Example 141, 4-(4-(3-fluorobenzyloxy)-3-chlorophenylamino)-6-amino-7-(2-methoxyethoxy)quinoline-3-carbonitrile]",91%
6,"CCOc1cc2ncnc(Nc3ccc(OCc4ccccn4)c(Cl)c3)c2cc1NC(=O)C=C1CCNCC1 [Example 107, N-(4-(3-chloro-4-(pyridin-2-ylmethoxy)phenylamino)-7-ethoxyquinazolin-6-yl)-2-(piperidin-4-ylidene)acetamide]",52%
7,"C#Cc1cccc(Nc2ncnc3ccc(NC(=O)C=C4CCN(Cc5ccccc5)CC4)cc23)c1 [Example 6, 2-(1-benzylpiperidin-4-ylidene)-N-(4-(3-ethynylphenylamino)quinazolin-6-yl)acetamide]",24%
8,"O=C(C=C1CCNCC1)Nc1cc2c(Nc3cccc(Cl)c3)ncnc2cc1F [Example 30, N-(4-(3-chlorophenylamino)-7-fluoroquinazolin-6-yl)-2-(piperidin-4-ylidene)acetamide]",55%
9,"C#Cc1cccc(Nc2ncnc3ccc(NC(=O)C=C4CCN(CC)CC4)cc23)c1 [Example 5, 2-(1-Ethylpiperidin-4-ylidene)-N-(4-(3-ethynylphenylamino)quinazolin-6-yl)acetamide]",73%
10,"COc1cc2ncc(C#N)c(Nc3ccc(OCc4cccc(F)c4)c(Cl)c3)c2cc1NC(=O)C=C1CCNCC1 [Example 144, N-(4-(4-(3-fluorobenzyloxy)-3-chlorophenylamino)-3-cyano-7-methoxyquinolin-6-yl)-2-(piperidin-4-ylidene)acetamide]",89%
11,"C[C@@H](Nc1ncnc2ccc(NC(=O)C=C3CCNCC3)cc12)c1ccccc1 [Example 35, N-(4-((R)-1-phenylethylamino)quinazolin-6-yl)-2-(piperidin-4-ylidene)acetamide]",23%
12,"COc1cc2ncnc(Nc3ccc(Oc4ccccc4)c(OC)c3)c2cc1NC(=O)C=C1CCNCC1 [Example 110, N-(7-methoxy-4-(3-methoxy-4-phenoxyphenylamino)quinazolin-6-yl)-2-(piperidin-4-ylidene)acetamide]",59%
